In PMC12410723, “Structure-function studies of Vibrio cholerae quorum-sensing receptor CqsR signal recognition” (PLOS Pathogens, 2025):

Legend:
[1] = target: CqsR periplasmic domain (CqsRp) (Vibrio cholerae, UniProt Q9KR16); conditions: MST binding studies, summary of Fig 4
CqsR = conditions: in vivo / in culture, high-cell-density phenotype; cited from earlier work
WT CqsR = WT CqsR strain, exogenously added ethanolamine
CqsR-T196A = CqsR-T196A strain, exogenously added ethanolamine
CqsR-D171A = CqsR-D171A strain, exogenously added ethanolamine
CqsR-W151A = CqsR-W151A strain, exogenously added ethanolamine
CqsR-Y169A = CqsR-Y169A strain, exogenously added ethanolamine
CqsR-D198N = CqsR-D198N strain, exogenously added ethanolamine
CqsRp = conditions: thermal unfolding; cited from earlier work

| Structure (SMILES) | CqsR binding (in words) [1] | also measured |
| --- | --- | --- |
| CCC(N)CO (stereo not shown) [2-amino-1-butanol] | Weak CqsR binding |  |
| CC[C@H](N)CO [(S)-(+)-2-amino-1-butanol] | Weak CqsR binding |  |
| C[C@H](N)C(=O)O [Alanine, alanine] | not tolerated |  |
| NCCO [Ethanolamine, ethanolamine] |  | CqsR signaling agonism (CqsR): acted as CqsR signaling agonists; qrr4 transcription (bioluminescence) (WT CqsR): reduced in a dose-dependent manner; qrr4 transcription (bioluminescence) (CqsR-T196A): reduced to a level comparable to that of the WT; qrr4 transcription (bioluminescence) (CqsR-D171A): intermediate phenotype; qrr4 transcription (bioluminescence) (CqsR-W151A): intermediate phenotype; qrr4 transcription (bioluminescence) (CqsR-Y169A): reduced to a level comparable to that of the WT; qrr4 transcription (bioluminescence) (CqsR-D198N): completely irresponsive |
| OCCO [Ethylene glycol, ethylene glycol] | No binding |  |
| NCCN [Ethylenediamine, ethylenediamine] | Weak CqsR binding |  |
| OCC(O)CO [Glycerol, glycerol] | No binding |  |
| NCC(=O)O [Glycine, glycine] | not tolerated |  |
| C[C@H](N)CO [L-alaninol] |  | CqsRp melting temperature (CqsRp): increased |
| NC(CO)CO [Serinol, serinol] |  | CqsRp melting temperature (CqsRp): increased |
| NC(CO)(CO)CO [Tris, tris] | Weak CqsR binding |  |
| NCCS [cysteamine] | not tolerated |  |
| NCC(N)=O [glycinamide] | not tolerated |  |
| CCC(N)CC [pentan-3-amine] | not tolerated |  |
| CCCO [propanol] | No binding |  |
| CCCN [propylamine] | not tolerated |  |
